Results reported in patent US8648092B2, “Imidazo[1,2-a]pyridine derivatives: preparation and pharmaceutical applications” (MEI Pharma, priority 2005, dated 2014).

What was measured:
[1] = target: HDAC1 enzyme (recombinant GST-HDAC1) (Homo sapiens (Human), UniProt Q13547); assay: In vitro HDAC assay for determination of IC50 values (BIOMOL fluorescent-based HDAC activity assay); assay type: biochemical; settings: Flur de lys substrate, 2 h room temperature, read-out: IC50 (HDAC 1)
Summary of the method: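 Recombinant human GST-HDAC1, baculovirus-expressed in SF9 cells and glutathione-purified, tested with a fluorogenic deacetylase substrate; Fluor de Lys developer added for 10 min. Fluorescence at 360 nm excitation/460 nm emission; IC50 fitted from a concentration series.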

[2] = tested on: Colo205 cells; assay: Cell-based proliferation assay for determination of GI50 values (CyQUANT); parameters: species or system human; settings: Homo sapiens
Summary of the method: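 Colo205 cells in RPMI 1640 with 5% FBS, seeded 5000/well and grown 24 h at 37 °C. Exposure to compound lasted 96 h, with growth read by CyQUANT. GI50 = concentration giving 50% growth inhibition, from dose-response curves.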

Sequence of HDAC1 enzyme (recombinant GST-HDAC1) (Q13547 whole entry): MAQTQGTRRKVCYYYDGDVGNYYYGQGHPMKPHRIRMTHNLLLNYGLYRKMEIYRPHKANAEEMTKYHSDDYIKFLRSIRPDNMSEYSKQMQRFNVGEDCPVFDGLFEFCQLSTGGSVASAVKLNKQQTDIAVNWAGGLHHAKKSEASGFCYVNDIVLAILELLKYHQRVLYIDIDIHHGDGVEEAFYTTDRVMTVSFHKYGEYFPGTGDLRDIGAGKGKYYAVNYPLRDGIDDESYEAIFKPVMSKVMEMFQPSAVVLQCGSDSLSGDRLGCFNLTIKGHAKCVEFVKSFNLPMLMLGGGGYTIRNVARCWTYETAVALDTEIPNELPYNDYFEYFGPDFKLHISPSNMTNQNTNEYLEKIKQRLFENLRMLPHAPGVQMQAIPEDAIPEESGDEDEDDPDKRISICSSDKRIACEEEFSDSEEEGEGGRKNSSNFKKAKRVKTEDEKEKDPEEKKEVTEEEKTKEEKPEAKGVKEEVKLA

SMILES	IC50 [1]	GI50 ([2]; COLO 205, 96 h treatment)	GI50 ([2]; COLO 205, 96 h, 96 h treatment)
CCCCN(CC)Cc1c(-c2ccccc2)nc2cc(/C=C/C(=O)NO)ccn12 [Compound 120, 3-{3-[(Butyl-ethylamino)-methyl]-2-phenyl-imidazo[1,2-a]pyridin-7-yl}-N-hydroxy-acrylamide]	40 nM	680 nM	
CCN(CCC(C)C)Cc1c(-c2ccccc2)nc2cc(/C=C/C(=O)NO)ccn12 [Compound 121, 3-(3-{[Ethyl-(3-methyl-butyl)-amino]-methyl}-2-phenyl-imidazo[1,2-a]pyridin-7-yl)-N-hydroxy-acrylamide]	30 nM	490 nM	
CCN(CCC(C)(C)C)Cc1c(-c2ccccc2)nc2cc(/C=C/C(=O)NO)ccn12 [Compound 122, 3-(3-{[(3,3-Dimethyl-butyl)-ethyl-amino]-methyl}-2-phenyl-imidazo[1,2-a]pyridin-7-yl)-N-hydroxy-acrylamide]	50 nM	520 nM	
CCCc1nc2cc(/C=C/C(=O)NO)ccn2c1CNC(C)(C)C [Compound 123, 3-[3-(tert-Butylamino-methyl)-2-propyl-imidazo[1,2-a]pyridin-7-yl]-N-hydroxy-acrylamide]	40 nM		180 nM
CCCCCc1nc2cc(/C=C/C(=O)NO)ccn2c1CNC(C)(C)C [Compound 128, 3-[3-(tert-Butylamino-methyl)-2-pentyl-imidazo[1,2-a]pyridin-7-yl]-N-hydroxy-acrylamide]	20 nM	70 nM	
CC(C)Cc1nc2cc(/C=C/C(=O)NO)ccn2c1CNC(C)(C)C [Compound 133, 3-[3-(tert-Butylamino-methyl)-2-isobutyl-imidazo[1,2-a]pyridin-7-yl]-N-hydroxy-acrylamide]	50 nM	210 nM	

Next, values leading:

IC50 [1]	GI50 ([2]; COLO 205, 96 h treatment)	GI50 ([2]; COLO 205, 96 h, 96 h treatment)	SMILES
200 nM	530 nM		CCCCc1nc2cc(/C=C/C(=O)NO)ccn2c1CN(CC)CCC(C)CC(C)(C)C (stereo not shown) [Compound 119, 3-(2-Butyl-3-{[ethyl-(3,55-trimethyl-hexyl)-amino]-methyl}-imidazo[1,2-a]pyridin-7-yl)-N-hydroxy-acrylamide]
50 nM	160 nM		CCN(CCC(C)(C)C)Cc1c(C)nc2cc(/C=C/C(=O)NO)ccn12 [Compound 125, 3-(3-{[(3,3-Dimethyl-butyl)-ethyl-amino]-methyl}-2-methyl-imidazo[1,2-a]pyridin-7-yl)-N-hydroxyacrylamide]
30 nM	80 nM		CCCc1nc2cc(/C=C/C(=O)NO)ccn2c1CN(CC)CCC(C)C [Compound 126, 3-(3-{[Ethyl-(3-methyl-butyl)-amino]-methyl}-2-propyl-imidazo[1,2-a]pyridin-7-yl)-N-hydroxy-acrylamide]
20 nM		70 nM	CCCc1nc2cc(/C=C/C(=O)NO)ccn2c1CN(CC)CCC(C)(C)C [Compound 127, 3-(3-{[(3,3-Dimethyl-butyl)-ethyl-amino]-methyl}-2-propyl-imidazo[1,2-a]pyridin-7-yl)-N-hydroxy-acrylamide]
40 nM		150 nM	CCCCCc1nc2cc(/C=C/C(=O)NO)ccn2c1CN(CC)CCCC [Compound 129, 3-{3-[(Butyl-ethyl-amino)-methyl]-2-pentyl-imidazo[1,2-a]pyridin-7-yl}-N-hydroxy-acrylamide]
30 nM		140 nM	CCCCCc1nc2cc(/C=C/C(=O)NO)ccn2c1CN(CC)CCC(C)C [Compound 130, 3-(3-{[Ethyl-(3-methyl-butyl)-amino]-methyl}-2-pentyl-imidazo[1,2-a]pyridin-7-yl)-N-hydroxy-acrylamide]
30 nM	150 nM		CCCCCc1nc2cc(/C=C/C(=O)NO)ccn2c1CN(CC)CCC(C)(C)C [Compound 131, 3-(3-{[(3,3-Dimethyl-butyl)-ethyl-amino]-methyl}-2-pentyl-imidazo[1,2a]pyridin-7-yl)-N-hydroxy-acrylamide]
40 nM	160 nM		CCCCN(CC)Cc1c(CCC)nc2cc(/C=C/C(=O)NO)ccn12 [Compound 132, 3-{3-[(Butyl-ethylamino)-methyl]-2-propyl-imidazo[1,2-a]pyridin-7-yl}-N-hydroxy-acrylamide]
